Patent US11384078B2, “5,6-fused-bicyclic compounds and compositions for the treatment of parasitic diseases” (NOVARTIS AG, priority 2017, dated 2022)
Where two headings read alike, the source gives them in different places.

Tests used:
Format in all cases: cell-based
[1] = test system: Leishmania donovani axenic amastigote; test: In vitro assay for growth inhibition of Leishmania donovani axenic amastigote (Cell TiterGlo luminescence); details: Leishmania donovani, L. donovani axenic amastigotes in vitro; read-out: L. donovani amastigotes EC50
Outline: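 Axenic L. donovani amastigotes (9600/well) grown at 37 °C, 5% CO2 in supplemented RPMI 1640, pH 5.5, with compound added from DMSO. After two days, viability read by CellTiter-Glo luminescence against DMSO and control-compound wells.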

[2] = test system: L. donovani HU3 strain in mouse peritoneal macrophages; test: Assay for inhibition of parasitemia of Leishmania donovani in mouse macrophages (SYBR Green nuclei count, high-content imaging); details: Leishmania donovani, Peritoneal macrophage, L. donovani in mouse peritoneal macrophages; read-out: L. donovani in Mouse Macrophages EC50
Excerpt: Assay for Inhibition of Parasitemia of Leishmania donovani in Mouse Macrophages
The assay measures the increase in the parasite number in the assayed plate well using a DNA intercalating dye, SYBR Green I® dye (INVITROGEN) to stain Leishmania cell nuclei. L. donovani HU3 strain is propagated by infecting BALB/c mice through tail vein injection with 10^7 Leishmania parasites. Infected mice are allowed to develop infection during 9-11 weeks post-infection. During this time, the parasites accumulate in the infected mouse spleens to large numbers, and the infected mice serve as the source of parasites for the in vitro measurement of compound efficacies. To assay a compound for anti-leishmanial activity, peritoneal macrophages isolated from non-infected BALB/c mice are seeded into 384-well plates at density 2×10^4 macrophages per well in […] of medium (RPM11640, 10% fetal serum albumin, 10 mM HEPES, 1 mM sodium pyruvate, 1% Pen/Strep). Subsequently, the seeded plates are placed into an incubator set to maintain 37° C. temperature and atmosphere with 5% CO2.
The next day, Leishmania parasites are isolated from the spleens of mice infected for 9-11 weeks and 4×10^5 isolated parasites in […] of the above media are added to each plate well. Plates are then returned into incubators and infection is allowed to proceed for 24 hours. After the infection of macrophages is completed, […] of compounds of the invention in the above medium, which also contains 5% DMSO, are added to plate wells containing infected macrophages. At the same time control compounds (miltefosine and amphotericin B) and DMSO are added to plates to serve as the positive and negative controls, respectively. After the compound addition, the plates are returned into incubator and cells infected with parasites are cultured for 5 days. At the end of cultivation, […] of 8% paraformaldehyde is added to plate wells and incubated for 15 min at room temperature. Following the incubation, the paraformaldehyde from plate wells is aspirated, and […] of PBS containing 0.2% Triton X-100 is added to wells. After 15 min incubation, the solution is aspirated from wells again, and replaced with Sybr® Green Dye solution in PBS (1:125,000 dilution). Infected cells are imaged with Evotec Opera high-content microscope, and the number of parasites in well is determined by counting parasite nuclei visualized by staining with Sybr® Green dye.

[3] = test system: Trypanosoma cruzi amastigotes cultured in 3T3 fibroblast cells; test: Assay for growth inhibition of kinetoplastid parasite Trypanosoma cruzi (beta-galactosidase Tulahuen strain, CPRG readout); details: Trypanosoma cruzi, Fibroblast, T. cruzi amastigotes in 3T3 fibroblast cells; read-out: Buckner infectious T. cruzi EC50
Outline: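 3T3 fibroblasts (1,000 cells/well) plated overnight, treated with compound in DMSO, then infected with 10,000 Lac-Z-expressing Tulahuen trypomastigotes. After 6 days, 0.6 mM CPRG with 0.6% NP-40 added for 2 h at room temperature; absorbance gives relative intracellular amastigote numbers. Benznidazole and nifurtimox serve as positive controls.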

[4] = test system: Trypanosoma brucei brucei (Lister 427) strain; test: Assay for growth inhibition against Trypanosoma brucei brucei (Cell TiterGlo ATP luminescence); details: T. brucei brucei (Lister 427), read-out: T. Brucei (HAT) EC50
Outline: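 T. b. brucei Lister 427 grown in HMI-9 with 10% FBS and 10% serum plus, seeded at 10,000 parasites/mL with 10-point threefold compound dilutions in duplicate, 37 °C for 2 days. Viability read as ATP luminescence 30 min after Cell TiterGlo; IC50 versus untreated controls.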

Row | SMILES | EC50 [1] [nM] | EC50 [2] [nM] | EC50 [3] [nM] | EC50 ([4]; Trypanosoma brucei) [nM] | EC50 [4] [nM]
1 | Cc1nc(C)c(C(=O)Nc2ccc(F)c(-n3cc4cc(C(C)(C)C)cnc4n3)c2)o1 [Compound 103, N-(3-{5-tert-butyl-2H-pyrazolo[3,4-b]pyridin-2-yl}-4-fluorophenyl)-2,4-dimethyl-1,3-oxazole-5-carboxamide] | 680 | 400 | 150 | 310 | –
2 | O=C(Nc1ccc(F)c(-n2cc3cc(-c4ccccn4)cnc3n2)c1)N1CC[C@@H](F)C1 [Compound 53, (3R)-3-fluoro-N-{4-fluoro-3-[5-(pyridin-2-yl)-2H-pyrazolo[3,4-b]pyridin-2-yl]phenyl}pyrrolidine-1-carboxamide] | 1.3 | 2 | 1 | < 23 | –
3 | CC(C)c1cnc2nn(-c3cc(NC(=O)c4ccc(C#N)cn4)ccc3F)cc2c1 [Compound 84, 5-cyano-N-{4-fluoro-3-[5-(propan-2-yl)-2H-pyrazolo[3,4-b]pyridin-2-yl]phenyl}pyridine-2-carboxamide] | 2400 | 6900 | 3700 | 2030 | –
4 | CCOC1CC1C(=O)Nc1ccc(F)c(-n2cc3cc(C(C)C)cnc3n2)c1 (stereo not drawn) [Compound 207, 2-ethoxy-N-{4-fluoro-3-[5-(propan-2-yl)-2H-pyrazolo[3,4-b]pyridin-2-yl]phenyl}cyclopropane-1-carboxamide] | 1830 | 2060 | 1270 | 1820 | –
5 | O=C(Nc1ccc(F)c(-n2cc3cc(N4C5CCC4COC5)cnc3n2)c1)N1CC(F)C1 [Compound 235, 3-fluoro-N-[4-fluoro-3-(5-{3-oxa-8-azabicyclo[3.2.1]octan-8-yl}-2H-pyrazolo[3,4-b]pyridin-2-yl)phenyl}azetidine-1-carboxamide] | 11 | 10 | 11 | 5 | –
6 | [2H]C([2H])([2H])N(c1cnc2nn(-c3cc(NC(=O)N4CCC4)ccc3F)cc2c1)C([2H])([2H])[2H] [Compound 306, N-(3-{5-[bis(^2H3)methylamino]-2H-pyrazolo[3,4-b]pyridin-2-yl}-4-fluorophenyl)azetidine-1-carboxamide] | 90 | 4 | 2 | 5 | –
7 | O=C(Nc1ccc(F)c(-n2cc3cc(N4CC(F)C4)cnc3n2)c1)N1CC(F)C1 [Compound 291, 3-fluoro-N-{4-fluoro-3-[5-(3-fluoroazetidin-1-yl)-2H-pyrazolo[3,4-b]pyridin-2-yl]phenyl}azetidine-1-carboxamide] | 10 | 5 | 5 | – | 5
8 | CC(C)OC(=O)Nc1cnc2nn(-c3cc(NC(=O)N4CC(F)C4)ccc3F)cc2c1 [Compound 168, Isopropyl (2-(2-fluoro-5-(3-fluoroazetidine-1-carboxamido)phenyl)-2H-pyrazolo[3,4-b]pyridin-5-yl)carbamate] | 3.2 | 8.2 | 27 | < 23 | –
9 | O=C(Nc1ccc(F)c(-n2cc3cc(CC4CCC4)cnc3n2)c1)N1CCC1 [Compound 97, N-{3-[5-(cyclobutylmethyl)-2H-pyrazolo[3,4-b]pyridin-2-yl]-4-fluorophenyl}azetidine-1-carboxamide] | 12 | 440 | 8.8 | < 23 | –
10 | N#CC1(C(=O)Nc2ccc(F)c(-n3cc4cc(-c5ccccn5)cnc4n3)c2)CC1 [Compound 348, 1-cyano-N-{4-fluoro-3-[5-(pyridin-2-yl)-2H-pyrazolo[3,4-b]pyridin-2-yl]phenyl}cyclopropane-1-carboxamide] | 347 | 963 | 142 | 112 | –
11 | CC(C)c1cnc2nn(-c3cc(NC(=O)C4CCCO4)ccc3F)cc2c1 (stereo not drawn) [Compound 88, N-{4-fluoro-3-[5-(propan-2-yl)-2H-pyrazolo[3,4-b]pyridin-2-yl]phenyl}oxolane-2-carboxamide] | 5300 | 3200 | 1800 | 1500 | –
12 | CC(C)c1cnc2nn(-c3cc(NC(=O)C4(C(F)(F)F)CC4)ccc3F)cc2c1 [Compound 209, N-{4-fluoro-3-[5-(propan-2-yl)-2H-pyrazolo[3,4-b]pyridin-2-yl]phenyl}-1-(trifluoromethyl)cyclopropane-1-carboxamide] | 25000 | 381 | 5090 | 6540 | –
13 | O=C(Nc1ccc(F)c(-n2cc3cc(-c4ncccc4F)cnc3n2)c1)N1CC(F)(F)C1 [Compound 309, 3,3-difluoro-N-{4-fluoro-3-[5-(3-fluoropyridin-2-yl)-2H-pyrazolo[3,4-b]pyridin-2-yl]phenyl}azetidine-1-carboxamide] | 1 | 2 | 1 | 5 | –
14 | O=C(Nc1ccc(F)c(-n2cc3cc(N4CCC5(CC5)C4)cnc3n2)c1)N1CCC2(CC2)C1 [Compound 242, N-[3-(5-{5-azaspiro[2.4]heptan-5-yl}-2H-pyrazolo[3,4-b]pyridin-2-yl)-4-fluorophenyl}-5-azaspiro[2.4]heptane-5-carboxamide] | 1970 | 106 | 7 | 13 | –
15 | CCC(C)c1cnc2nn(-c3cc(NC(=O)N4CC(F)C4)ccc3F)cc2c1 (stereo not drawn) [Compound 25, N-{3-[5-(butan-2-yl)-2H-pyrazolo[3,4-b]pyridin-2-yl]-4-fluorophenyl}-3-fluoroazetidine-1-carboxamide] | 21 | 47 | 17 | < 23 | –
16 | Cc1cccnc1-c1cnc2nn(-c3cc(NC(=O)c4ccco4)ccc3F)cc2c1 [Compound 2, N-(4-fluoro-3-(5-(3-methylpyridin-2-yl)-2H-pyrazolo[3,4-b]pyridin-2-yl)phenyl)furan-2-carboxamide] | 3 | 4.4 | 1 | < 23 | –
17 | O=C(Nc1ccc(F)c(-n2cc3cc(N4CC5C(C4)C5(F)F)cnc3n2)c1)N1CC(F)C1 (stereo not drawn) [Compound 204, N-[3-(5-{6,6-difluoro-3-azabicyclo[3.1.0]hexan-3-yl}-2H-pyrazolo[3,4-b]pyridin-2-yl)-4-fluorophenyl]-3-fluoroazetidine-1-carboxamide] | 74 | 4 | 2 | 5 | –
18 | Cc1nc(C)c(C(=O)Nc2ccc(F)c(-n3cc4cc(N5CCOCC5)cnc4n3)c2)o1 [Compound 158, N-{4-fluoro-3-[5-(morpholin-4-yl)-2H-pyrazolo[3,4-b]pyridin-2-yl]phenyl}-2,4-dimethyl-1,3-oxazole-5-carboxamide] | 16 | 16 | 15 | < 23 | –
19 | CCC(C)(C)c1cnc2nn(-c3cc(NC(=O)N4CC(F)(F)C4)ccc3F)cc2c1 [Compound 35, 3,3-difluoro-N-{4-fluoro-3-[5-(2-methylbutan-2-yl)-2H-pyrazolo[3,4-b]pyridin-2-yl]phenyl}azetidine-1-carboxamide] | 580 | 520 | 380 | 850 | –
20 | O=C(Nc1ccc(F)c(-n2cc3cc(-c4ccccn4)cnc3n2)c1)[C@@H]1C[C@H]1F (single isomer, unassigned) [Compound 256] | 11 | 38 | 5 | 27 | –
21 | CC(C)c1cnc2nn(-c3cc(NC(=O)c4cnccn4)ccc3F)cc2c1 [Compound 87, N-(4-fluoro-3-(5-isopropyl-2H-pyrazolo[3,4-b]pyridin-2-yl)phenyl)pyrazine-2-carboxamide] | 62 | 71 | 16 | < 23 | –
